In ChEMBL document CHEMBL1148733, “Novel N7- and N1-substituted cGMP derivatives are potent activators of cyclic nucleotide-gated channels” (J Med Chem, 2007):

How the values were obtained:
[1] = tested on: HEK293; conditions: Homo sapiens
Description: Activation of olfactory CNG A2A41b channel expressed in HEK293 cells assessed as effect on half maximal current

[2] = tested on: Oocyte; assay: Activation of retinal rod […] CNG A1B1 channel expressed in Xenopus oocytes assessed as effect on half maximal current; type: cell-based; conditions: Homo sapiens

SMILES | K1/2 [1] | K1/2 [2]
CO[C@@H]1[C@@H]2OP(=O)(O)OC[C@H]2O[C@H]1n1c(Sc2ccc(Cl)cc2)nc2c(N)ncnc21 | 22 µM | –
Nc1nc2c([nH]c(=S)n2[C@@H]2O[C@@H]3COP(=O)(O)O[C@H]3[C@H]2O)c(=O)[nH]1 | 0.18 µM | 14 µM
CS(=O)(=O)CCSc1nc2c(=O)[nH]c(N)nc2n1[C@@H]1O[C@@H]2COP(=O)(O)O[C@H]2[C@H]1O | 0.37 µM | –
Nc1ncnc2c1nc(Sc1ccc(Cl)cc1)n2[C@@H]1O[C@@H]2COP(=O)(O)O[C@H]2[C@H]1O | 0.55 µM | –
Nc1nc2c(c(=O)[nH]1)n(CCS(=O)(=O)c1ccccc1)c(=S)n2[C@@H]1O[C@@H]2COP(=O)(O)O[C@H]2[C@H]1O | 0.082 µM | 4.1 µM
CO[C@@H]1[C@@H]2OP(=O)(O)OC[C@H]2O[C@H]1n1cnc2c(=O)n(C)c(N)nc21 | 290 µM | –
CCCC(=O)Nc1nc2c(ncn2[C@@H]2O[C@@H]3COP(=O)(O)O[C@H]3[C@H]2O)c(=O)[nH]1 | 22 µM | –
Nc1nc2c(ncn2[C@@H]2O[C@@H]3COP(=O)(O)O[C@H]3[C@H]2O)c(=O)[nH]1 | 1.1 µM | 41 µM
Nc1nc2c(c(=O)[nH]1)[n+]1c(n2[C@@H]2O[C@@H]3COP(=O)(O)O[C@H]3[C@H]2O)SCCC1 | 10 µM | –
CCCC(=O)O[C@@H]1[C@@H]2OP(=O)(O)OC[C@H]2O[C@H]1n1cnc2c(=O)[nH]c(N)nc21 | 88 µM | –
CO[C@@H]1[C@@H]2OP(=O)(O)OC[C@H]2O[C@H]1n1cnc2c(=O)[nH]c(N)nc21 | 35 µM | –
Nc1nc2c(nc(Sc3ccc(Cl)cc3)n2[C@@H]2O[C@@H]3COP(=O)(O)O[C@H]3[C@H]2O)c(=O)n1CCS(=O)(=O)c1ccccc1 | 0.38 µM | 12 µM
Nc1nc2c(nc(Sc3ccc(Cl)cc3)n2[C@@H]2O[C@@H]3COP(=O)(O)O[C@H]3[C@H]2O)c(=O)[nH]1 | 0.073 µM | 1 µM
CS(=O)(=O)CCn1c(=S)n([C@@H]2O[C@@H]3COP(=O)(O)O[C@H]3[C@H]2O)c2nc(N)[nH]c(=O)c21 | 0.11 µM | –
Nc1nc2c(nc(SCCS(=O)(=O)c3ccccc3)n2[C@@H]2O[C@@H]3COP(=O)(O)O[C@H]3[C@H]2O)c(=O)[nH]1 | 0.21 µM | –
